Assay results reported in PubChem BioAssay AID258 (DTP/NCI, 2004).
Several values for one entry are separate records, joined by “and”; a condition that tells them apart may be missing. Identical values can stand only once. Toxic doses and inconclusive results are not listed.

System: CD2F1 mice, L1210 leukemia sc, survival T/C
Assay: NCI In Vivo Anticancer Drug Screen. Data for tumor model L1210 Leukemia (subcutaneous) in CD2F1 (CDF1) mice
Conditions: endpoint: median survival time, higher = longer survival
How it was run: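 Read-out: survival or tumor size. Value = treated (T) / vehicle control (C). Transplantable tumor in mice.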

## O=P1(N(CCCl)CCCl)NCCCO1 (stereo not given)
dose: 6.25 mg/kg/injection, schedule: Q01DX009 (ip), vehicle: saline
  T/C: 103 % of control
dose: 6.25 mg/kg/injection, schedule: Q01DX009 (sc), vehicle: saline
  T/C: 107 % of control
dose: 12.5 mg/kg/injection, schedule: Q01DX009 (ip), vehicle: saline
  T/C: 106 % of control and 107 % of control
dose: 12.5 mg/kg/injection, schedule: Q01DX009 (sc), vehicle: saline
  T/C: 110 % of control
dose: 23.0 mg/kg/injection, schedule: Q01DX Z (sc), vehicle: saline
  T/C: 210 % of control
dose: 25.0 mg/kg/injection, schedule: Q01DX009 (ip), vehicle: saline
  T/C: 151 % of control
dose: 39.0 mg/kg/injection, schedule: Q01DX Z (sc), vehicle: saline
  T/C: 221 % of control
dose: 39.0 mg/kg/injection, schedule: Q08DX003 (ip), vehicle: none
  T/C: 118 % of control
dose: 39.0 mg/kg/injection, schedule: Q08DX003 (sc), vehicle: saline
  T/C: 116 % of control
dose: 50.0 mg/kg/injection, schedule: Q01DX009 (ip), vehicle: saline
  T/C: 165 % of control and 173 % of control and 177 % of control
dose: 50.0 mg/kg/injection, schedule: Q01DX009 (sc), vehicle: saline
  T/C: 191 % of control
dose: 65.0 mg/kg/injection, schedule: Q01DX Z (sc), vehicle: saline
  T/C: 236 % of control
dose: 65.0 mg/kg/injection, schedule: Q07DX003 (ip), vehicle: saline
  T/C: 123 % of control
dose: 65.0 mg/kg/injection, schedule: Q08DX003 (ip), vehicle: none
  T/C: 188 % of control
dose: 65.0 mg/kg/injection, schedule: Q08DX003 (sc), vehicle: saline
  T/C: 172 % of control
dose: 65.0 mg/kg/injection, schedule: Q## X Z (sc), vehicle: saline
  T/C: 215 % of control
dose: 100.0 mg/kg/injection, schedule: Q01DX009 (ip), vehicle: saline
  T/C: 222 % of control and 247 % of control and 89 % of control
dose: 100.0 mg/kg/injection, schedule: Q01DX009 (sc), vehicle: saline
  T/C: 259 % of control
dose: 108.0 mg/kg/injection, schedule: Q01DX001 (sc), vehicle: saline
  T/C: 164 % of control and 166 % of control and 168 % of control
dose: 108.0 mg/kg/injection, schedule: Q01DX Z (sc), vehicle: saline
  T/C: 189 % of control
dose: 108.0 mg/kg/injection, schedule: Q07DX003 (ip), vehicle: saline
  T/C: 183 % of control
dose: 108.0 mg/kg/injection, schedule: Q07DX003 (sc), vehicle: saline
  T/C: 211 % of control and 217 % of control
dose: 108.0 mg/kg/injection, schedule: Q07DX Z (sc), vehicle: saline
  T/C: 226 % of control
dose: 108.0 mg/kg/injection, schedule: Q08DX003 (ip), vehicle: none
  T/C: 241 % of control
dose: 108.0 mg/kg/injection, schedule: Q08DX003 (sc), vehicle: saline
  T/C: 227 % of control
dose: 108.0 mg/kg/injection, schedule: Q## X Z (sc), vehicle: saline
  T/C: 231 % of control
dose: 180.0 mg/kg/injection, schedule: Q01DX001 (sc), vehicle: saline
  T/C: 197 % of control and 200 % of control (2×)
dose: 180.0 mg/kg/injection, schedule: Q01DX Z (sc), vehicle: saline
  T/C: 152 % of control
dose: 180.0 mg/kg/injection, schedule: Q07DX003 (ip), vehicle: saline
  T/C: 274 % of control
dose: 180.0 mg/kg/injection, schedule: Q07DX003 (sc), vehicle: saline
  T/C: 355 % of control and 373 % of control
dose: 180.0 mg/kg/injection, schedule: Q07DX Z (sc), vehicle: saline
  T/C: 284 % of control
dose: 180.0 mg/kg/injection, schedule: Q08DX003 (ip), vehicle: none
  T/C: 288 % of control
dose: 180.0 mg/kg/injection, schedule: Q08DX003 (sc), vehicle: saline
  T/C: 283 % of control
dose: 180.0 mg/kg/injection, schedule: Q## X Z (sc), vehicle: saline
  T/C: 263 % of control
dose: 300.0 mg/kg/injection, schedule: Q01DX001 (sc), vehicle: saline
  T/C: 242 % of control and 244 % of control and 252 % of control
dose: 300.0 mg/kg/injection, schedule: Q07DX003 (ip), vehicle: saline
  T/C: 274 % of control
dose: 300.0 mg/kg/injection, schedule: Q07DX003 (sc), vehicle: saline
  T/C: 283 % of control and 296 % of control
dose: 300.0 mg/kg/injection, schedule: Q07DX Z (sc), vehicle: saline
  T/C: 231 % of control
dose: 300.0 mg/kg/injection, schedule: Q08DX003 (ip), vehicle: none
  T/C: 222 % of control
dose: 300.0 mg/kg/injection, schedule: Q08DX003 (sc), vehicle: saline
  T/C: 205 % of control
dose: 500.0 mg/kg/injection, schedule: Q01DX001 (sc), vehicle: saline
  T/C: 120 % of control and 221 % of control
dose: 500.0 mg/kg/injection, schedule: Q## X Z (sc), vehicle: saline
  T/C: 152 % of control
dose: 833.0 mg/kg/injection, schedule: Q01DX001 (sc), vehicle: saline
  T/C: 210 % of control
dose: 833.0 mg/kg/injection, schedule: Q07DX Z (sc), vehicle: saline
  T/C: 157 % of control

## C[n+]1c2ccccc2nc2c(N)cc(N)cc21
dose: 3.0 mg/kg/injection, schedule: Q01DX Z (ip), vehicle: water
  T/C: 100 % of control
dose: 5.0 mg/kg/injection, schedule: Q01DX Z (ip), vehicle: water
  T/C: 100 % of control
dose: 5.0 mg/kg/injection, schedule: Q01DX Z (sc), vehicle: water
  T/C: 100 % of control
dose: 8.4 mg/kg/injection, schedule: Q01DX Z (ip), vehicle: water
  T/C: 100 % of control
dose: 8.4 mg/kg/injection, schedule: Q01DX Z (sc), vehicle: water
  T/C: 100 % of control
dose: 14.0 mg/kg/injection, schedule: Q01DX Z (ip), vehicle: water
  T/C: 100 % of control
dose: 14.0 mg/kg/injection, schedule: Q01DX Z (sc), vehicle: water
  T/C: 100 % of control
dose: 23.0 mg/kg/injection, schedule: Q01DX Z (ip), vehicle: water
  T/C: 100 % of control
dose: 23.0 mg/kg/injection, schedule: Q01DX Z (sc), vehicle: water
  T/C: 111 % of control
dose: 39.0 mg/kg/injection, schedule: Q01DX Z (ip), vehicle: water
  T/C: 111 % of control
dose: 39.0 mg/kg/injection, schedule: Q01DX Z (sc), vehicle: water
  T/C: 111 % of control

## CO[C@@]12[C@H](COC(N)=O)C3=C(C(=O)C(C)=C(N)C3=O)N1C[C@@H]1N[C@@H]12
dose: 0.7 mg/kg/injection, schedule: Q01DX Z (sc), vehicle: saline
  T/C: 100 % of control
dose: 1.17 mg/kg/injection, schedule: Q01DX Z (sc), vehicle: saline
  T/C: 100 % of control
dose: 1.95 mg/kg/injection, schedule: Q01DX Z (sc), vehicle: saline
  T/C: 100 % of control
dose: 3.25 mg/kg/injection, schedule: Q01DX Z (sc), vehicle: saline
  T/C: 108 % of control
dose: 9.03 mg/kg/injection, schedule: Q01DX Z (sc), vehicle: saline
  T/C: 116 % of control
